Source: patent publication US12496267B2, “Extract of organic humified materials” (priority 2019, dated 2025)

Legend:
Format in all cases: cell-based
IL-4 = experiment: Inflammation: reconstructed human epidermis/PBMC, MSD U-PLEX, IL-4; conditions: PBMCs (supernatant), 1%
Experimental: (§1) Potential immune modulatory effects were determined on reconstructed human epidermis (RHE) using a 3D Skin Modell (Cell systems). In the first step the skin patches are stimulated with specific controls and stimuli for a defined time period. In this context it had to be considered that different stimuli require different incubation times. The incubation with heat inactivated C.acnes (10^7 cells/approach) as well as the direct incubation with the test substances (AHE/FA/BIS) was performed for 16h at 37° C. The AHE test substances comprised AHE solutions, comprising either 1%, 2% or 5% AHE in PBS, generated as described in Example 8. The incubation with the positive control (5% SDS) was performed for 20 min (37° C.). After the primary stimulation step skin patches were washed (PBS 3×300 μl) and subjected to a regeneration phase (24h/37° C.) in presence of the indicated substances (CM/AHE/FA/CH/BIS). After this incubation phase the culture medium of each approach was isolated and used to stimulate human PBMCs. Hereby 100 μl of the RHE culture was added cultures of human PBMCs (1×10^6 cells in 300 μl culture medium) and incubated for additional 16 h (37° C.). After this incubation step, PBMCs were separated by centrifugation and the supernatant was saved for the MSD multiplexing platform. In parallel the cells of the RHE culture were subjected to cell lysis (1% SDS, 30 min/4° C. agitation). Cell extracts were saved for the MSD multiplexing platform.
(§2) Using the MSD U-PLEX it is possible to create an individualized multiplex assays for any combination of analytes. Hereby biotinylated capture reagents are coupled to U-PLEX Linkers. The U-PLEX Linkers then self-assemble onto unique spots on the U-PLEX plate. After analytes in the sample bind to the capture reagents, detection antibodies conjugated with electro-chemiluminescent labels (MSD GOLD SULFO-TAG) bind to the analytes to complete the sandwich immunoassay. Using this technology, the following markers were immobilized: […]

IL-13 = experiment: Inflammation: reconstructed human epidermis/PBMC, MSD U-PLEX, IL-13; conditions: PBMCs (supernatant), 1%
Experimental: as §1, §2

IL-12p70 = experiment: Inflammation: reconstructed human epidermis/PBMC, MSD U-PLEX, IL-12p70; conditions: 1%
Experimental: as §1
(§3) Using the MSD U-PLEX it is possible to create an individualized multiplex assays for any combination of analytes. Hereby biotinylated capture reagents are coupled to U-PLEX Linkers. The U-PLEX Linkers then self-assemble onto unique spots on the U-PLEX plate. After analytes in the sample bind to the capture reagents, detection antibodies conjugated with electro-chemiluminescent labels (MSD GOLD SULFO-TAG) bind to the analytes to complete the sandwich immunoassay. Using this technology, the following markers were immobilized:
(§4) U-PLEX Human IFN-γ, U-PLEX Human IL-16, U-PLEX Human IL-2, U-PLEX Human IL-4, U-PLEX Human IL-5, U-PLEX Human IL-6, U-PLEX Human IL-8, U-PLEX Human IL-12p70, U-PLEX Human IL-13, U-PLEX Human IL-17A, U-PLEX Human IL-17F, U-PLEX Human IL-22, U-PLEX Human IL-23, U-PLEX Human TNF-α. U-PLEX Human TGF-β1. All steps were performed according to the supplier's protocol.
As described above, the Reconstructed human epidermis (RhE) was stimulated with the indicated substances and stimuli (Sample # Description, Tables 11-21) for 16 h. Upon this step the RhE was washed and in incubated in a second line with the indicated substances or culture medium. As controls, the RhE was treated in the first line with PBS and subsequently with culture medium. […]

IFN-γ = experiment: Inflammation: reconstructed human epidermis/PBMC, MSD U-PLEX, IFN-γ; conditions: 1%
Experimental: as §1, §3, §4
(§5) As described above, the Reconstructed human epidermis (RhE) was stimulated with the indicated substances and stimuli (Sample # Description, Tables 11-21) for 16 h. Upon this step the RhE was washed and in incubated in a second line with the indicated substances or culture medium. As controls, the RhE was treated in the first line with PBS and subsequently with culture medium. As further controls the PBMCs were treated with culture medium alone, with heat inactivated C. acnes and with pooled supernantant (SN) of the RhEs before stimulation. For Mesoscale analysis, the supernatant of the PBMC culture (PBMCs) was compared with a cell extract of the RhE prepared after the individual incubation steps (RhEs) and the supernatant of the RhEs after the stimulation steps (SN RhEs). RhE treated in the first and second line with culture medium (Rhe NC) can be used as negative control in all settings.

IL-8 = experiment: Inflammation: reconstructed human epidermis/PBMC, MSD U-PLEX, IL-8; conditions: 1%
Experimental: as §1, §3, §4, §5

IL-5 = experiment: Inflammation: reconstructed human epidermis/PBMC, MSD U-PLEX, IL-5; conditions: 1%
Experimental: as §1, §3, §4, §5

TNFα = experiment: Inflammation: reconstructed human epidermis/PBMC, MSD U-PLEX, TNFα; conditions: 1%
Experimental: as §1, §3, §4, §5

IL-6 = experiment: Inflammation: reconstructed human epidermis/PBMC, MSD U-PLEX, IL-6; conditions: 1%
Experimental: as §1, §3, §4, §5

IL-1β = experiment: Inflammation: reconstructed human epidermis/PBMC, MSD U-PLEX, IL-1β; conditions: 1%
Experimental: as §1, §3, §4, §5

[1] = RhE C. acnes-stimulated, then substance
[2] = PBMCs (supernatant), RhE C. acnes-stimulated, then substance
[3] = PBMCs (supernatant), RhE without C. acnes
[4] = SN RhEs, RhE C. acnes-stimulated, then substance
[5] = RhEs (cell extract), RhE without C. acnes

Q: What does the source list for CC(C)=CCC[C@](C)(O)C1CC=C(C)CC1 (stereo partly drawn) [Bisabolol]?
A: IL-4 concentration (IL-4; [1]): 10.1 pg/mL; IL-4 concentration (IL-4; RhE without C. acnes): 9.1 pg/mL; IL-13 concentration (IL-13; [1]): 186.6 pg/mL; IL-13 concentration (IL-13; RhE without C. acnes): 157.9 pg/mL; IL-12p70 concentration (IL-12p70; [2]): 69.9 pg/mL; IL-12p70 concentration (IL-12p70; [3]): 51.3 pg/mL; IL-12p70 concentration (IL-12p70; [4]): 3.3 pg/mL; INF-y concentration (IFN-γ; [2]): 124.4 pg/mL; INF-y concentration (IFN-γ; [3]): 90.5 pg/mL; INF-y concentration (IFN-γ; [5]): 8.3 pg/mL; INF-y concentration (IFN-γ; [4]): 13.9 pg/mL; IL-8 concentration (IL-8; [2]): 43765.9 pg/mL; IL-8 concentration (IL-8; [3]): 44123.3 pg/mL; IL-8 concentration (IL-8; RhEs (cell extract), RhE C. acnes-stimulated, then substance): 58.1 pg/mL; IL-8 concentration (IL-8; [5]): 68.9 pg/mL; IL-8 concentration (IL-8; [4]): 4317.3 pg/mL; IL-8 concentration (IL-8; SN RhEs, RhE without C. acnes): 2459.3 pg/mL; IL-5 concentration (IL-5; [2]): 24.1 pg/mL; IL-5 concentration (IL-5; [3]): 18.2 pg/mL; IL-5 concentration (IL-5; [4]): 1.1 pg/mL; IL-5 concentration (IL-5; SN RhEs, RhE without C. acnes): 0.0 pg/mL; TNFα concentration (TNFα; [2]): 51.6 pg/mL; TNFα concentration (TNFα; [3]): 29.8 pg/mL; TNFα concentration (TNFα; [4]): 8.6 pg/mL; TNFα concentration (TNFα; SN RhEs, RhE without C. acnes): 17.1 pg/mL; IL-6 concentration (IL-6; [2]): 13038.0 pg/mL; IL-6 concentration (IL-6; [3]): 12302.5 pg/mL; IL-6 concentration (IL-6; [4]): 75.1 pg/mL; IL-6 concentration (IL-6; SN RhEs, RhE without C. acnes): 30.8 pg/mL; IL-1β concentration (IL-1β; [2]): 1525 pg/mL; IL-1β concentration (IL-1β; [3]): 1277 pg/mL; IL-1β concentration (IL-1β; [4]): 8.5 pg/mL; IL-1β concentration (IL-1β; SN RhEs, RhE without C. acnes): 5.4 pg/mL
